The values below come from patent publication US20230407296A1, “Method to Regulate ALOX12-AS1 IncRNA-Mediated Alteration of ALOX12 Protein and to Screen for Novel Drugs to Alter ALOX12 Protein Level” (priority 2021, published 2023).

One assay concerns ALOX12. As to the kind of experiment: ALOX12 catalytic activity in cell lysates (12S-HETE ELISA). The format is biochemical, human. Conditions: lysate of TPA-induced MLC, 50 μM arachidonic acid, 15 min, 37° C.; vehicle THP-1 lysate ~6 ng. An excerpt: We measured ALOX12 enzyme activity of THP-1 and TPA-induced MLC cell lysates and compared them to establish the biological relevance of lncRNA-mediated downregulation of ALOX12 protein level. We used a cell-free system to avoid any limitations of intracellular arachidonic acid uptake by an in vitro cell-based system. As well, we used a platelet-derived protein-lysate as a positive control for ALOX12 enzyme activity. ALOX12 was originally discovered and characterized as an arachidonic acid peroxidizing enzyme in platelets.
ALOX12 catalytic activity was measured in a cell-free system using cell lysates derived from unactivated human platelets (positive control) and Phorbol ester (12-O-Tetradecanoylphorbol 13-acetate: TPA)/vehicle (DMSO/ethanol)-treated THP-1. ALOX12 converts arachidonate to the bioactive lipid 12(S)-hydroperoxyeicosatetraenoate (12S-HpETE). […] The cell lysates prepared in 1×PBS supplemented with 0.5% NP40, 1× Halt protease and phosphatase inhibitor cocktail 1 were incubated with 50 μM arachidonic acid (catalogue number: A0781, Tokyo Chemical Industry, USA) for 15 min at 37° C. and the amount of 12S-HETE was quantitatively measured using a commercially available Enzyme-Linked ImmunoAssay (ELISA) kit (catalogue number: ADI-900-050, Enzo Life Sciences Inc., USA) as per the manufacturer's instructions. […]

In another assay the test system is ALOX12 mRNA. Description: Multiplex RT-PCR of ALOX12 mRNA in TPA-treated THP-1 derived MLCs. The format is cell-based, human. Conditions: TPA treated (72 hours) MLCs vs vehicle treated THP-1 cells. Here is the method:
Phorbol ester (12-O-Tetradecanoylphorbol 13-acetate: TPA) is an activator of protein kinase C (PKC) that has been frequently used for inducing the differentiation of different cell types, including myeloid cells. Activation of human monocytic cells affects ALOX expression. Therefore, we induced differentiation of monocytic THP-1 cells to macrophage-like cells (MLCs) with 100 nM TPA [91, 92] and monitored the ALOX12 protein level as well as nucleo-cytoplasmic translocation of ALOX12-AS1-201. […] We concurrently monitored expression of the integrin subunit a M (ITGAM), also known as CD11b, which regulates myeloid cell polarization and is expressed in macrophages to facilitate adhesion, migration, chemotaxis, and accumulation during inflammation. […]
Total RNA from different cell lines was extracted with Trizol reagent (Catalog number: 15596026; ThermoFisher Scientific, Canada) as per the manufacturer's recommended protocol. […] Absolute quantification of ALOX12-AS1 lncRNA isoforms was performed in a Mastercycler®ep realplex real-time PCR system (Eppendorf, Hamburg, Germany) using SYBR green dye (Catalog number: S7563; ThermoFisher Scientific). […] Real-time PCR data quality control calculations were determined by the SAS program as described previously and the calculated PCR efficiency was between 95%-99%. […] Results were expressed as copy number of specific isoforms per 100 ng of total RNA.

Structures are written as SMILES.

In the case of `CCCCCCCCCCCCCC(=O)O[C@@H]1[C@@H](C)[C@@]2(O)[C@@H](C=C(CO)C[C@]3(O)C(=O)C(C)=C[C@@H]23)[C@@H]2C(C)(C)[C@]12OC(C)=O` [TPA, 12-O-Tetradecanoylphorbol 13-acetate], the 12S-HETE production in the assay on ALOX12 is given as around 1.3 ng. Further, the “ALOX12 mRNA level” value in the assay on ALOX12 mRNA is on record as “relatively unaltered”.
